Measured values from publication PMC7114187 (Antiviral Research, 2008).
Where a name gives a salt, the structure may show the parent alone. Read-outs that look alike come from different tables or passages of the source.

Key:
influenza viruses = assay: microbe, parasite or virus in culture; assay type: cell-based, influenza virus; conditions: for inhibition at 10 µM: read-out: inhibition of CPE at 10 μM
[1] = system: influenza neuraminidase (NA), inactivated viral suspensions of influenza A/Udorn/72 (H3N2); assay type: biochemical
NIBRG-14 (H5N1) = assay: microbe, parasite or virus in culture; assay type: cell-based, influenza NIBRG-14 (H5N1); conditions: read-out: EC50 viral plaque formation
[2] = system: influenza A/WSN/33 (H1N1); assay: microbe, parasite or virus in culture; assay type: cell-based; conditions: read-out: EC50 viral plaque formation
[3] = system: influenza A/Udorn/72 (H3N2); assay: microbe, parasite or virus in culture; assay type: cell-based; conditions: read-out: EC50 viral plaque formation
[4] = target: influenza A/WSN/33 (H1N1) polymerase complex (PA, PB1, PB2, NP) (Influenza A virus, UniProt P03427+P03430+P15659); assay type: cell-based
[5] = target: NA in inactivated viral suspension of influenza A/Udorn/72 (H3N2) (Influenza A virus (H3N2), UniProt P0DOF6); assay type: biochemical; conditions: read-out: IC50 NA inhibition
[6] = system: influenza A/WSN/33 (H1N1); assay type: cell-based
SARS-CoV = conditions: cited from earlier work
in vitro = conditions: dog
[7] = read-out: CPE inhibition IC50 (<10 μM), symbol
[8] = unidentified influenza virus, MDCK, 72 h, read-out: CPE inhibition IC50 (<10 μM)
[9] = unidentified influenza virus, MDCK

## O=C(O[C@@H]1Cc2c(O)cc(O)cc2O[C@@H]1c1cc(O)c(O)c(O)c1-c1c([C@H]2Oc3cc(O)cc(O)c3C[C@H]2OC(=O)c2cc(O)c(O)c(O)c2)cc(O)c(O)c1O)c1cc(O)c(O)c(O)c1 [2′2′-Bisepigallocatechin digallate]
MDCK cells
  CC50: > 50 µM
Influenza viruses; [7]
  IC50: > 10 µM
[1]
  NA activity inhibition at 50 μM (%): 60.6%

## O=C(O)C1=CC(=C(c2ccc(O)c(C(=O)O)c2)c2ccc(O)c(C(=O)O)c2)C=CC1=O [ATA, aurintricarboxylic acid]
NIBRG-14 (H5N1); Influenza A virus, H5N1, MDCK
  EC50: 5.4 µM
[2]; Influenza A virus, H1N1|WSN, MDCK
  EC50: 4.1 µM
[3]; Influenza A virus, H3N2, MDCK
  EC50: 6.3 µM
[4]
  inhibition of RdRp-derived expression of CAT: did not inhibit
[5]
  IC50: 13.8 µM
[6]
  reduction of the viral yield: > 1000 fold
  reduction of the yield of influenza progeny virus: only marginal activity
Influenza viruses; [8]
  IC50: 9.4 µM
Influenza viruses; [9]
  inhibition at 10 µM: > 50%
SARS-CoV
  EC50 for SARS-CoV: 200 µg/mL
[1]
  NA activity inhibition at 50 μM (%): 100.0%
In vitro
  CC50: 95.5 µM

## CCCc1ncc(C[n+]2ccccc2C)c(N)n1 [Amprolium]
[1]
  NA activity inhibition at 50 μM (%): 95.0%

## CC1(C)OCC(C2OC(=O)C(O)=C2O)O1 (stereo not drawn) [Ascorbic acid acetonide]
Influenza viruses; [7]
  IC50: > 10 µM
[1]
  NA activity inhibition at 50 μM (%): 83.5%

## S=C=NCc1ccccc1 [Benzyl isothiocyanate]
[1]
  NA activity inhibition at 50 μM (%): 75.5%

## CCc1ccc2c(O)c3c(cc2c1C(=O)OC)C(=O)c1c(O)ccc(O)c1C3=O [Bisanhydrorutilantinone]
[1]
  NA activity inhibition at 50 μM (%): 71.9%

## Cc1cc(=O)c2c(o1)-c1c(cc(O)c(O)c1C(=O)O)OC2 [Citromycetin]
Influenza viruses; [7]
  IC50: > 10 µM
[1]
  NA activity inhibition at 50 μM (%): 46.8%

## CC(=O)[C@@]1(O)CC[C@H]2[C@@H]3C=C(Cl)C4=CC(=O)[C@@H]5C[C@@H]5[C@]4(C)[C@H]3CC[C@@]21C [Cyproterone]
Influenza viruses; [7]
  IC50: > 10 µM
[1]
  NA activity inhibition at 50 μM (%): 55.7%

## COc1ccc(-c2cc(=O)c3c(O)cc(O)cc3o2)cc1O [Diosmetin]
[1]
  NA activity inhibition at 50 μM (%): 59.0%

## CCOC(=O)C1=C(O)C(=O)N(Cc2ccccc2)C1 [Ethyl1-benzyl-3-hydroxy-2-oxo(5H)pyrrole-4-carboxylate]
[1]
  NA activity inhibition at 50 μM (%): 71.9%

## CCC(CC)O[C@@H]1C=C(C(=O)O)C[C@H](N)[C@H]1NC(C)=O [GS4071, Oseltamivir carboxylate]
NIBRG-14 (H5N1)
  EC50: […]
[2]
  EC50: […]
[3]
  EC50: […]
[6]
  reduction in the yield of progeny virus: no reduction
  reduction of the viral yield: effective to reduce the viral yield
Influenza viruses; read-out: CPE inhibition IC50 (<10 μM)
  IC50: 0.1 µM
[1]
  NA activity inhibition at 50 μM (%): 100.0%
In vitro
  CC50: > 25 µM

## O=C(/C=C/c1ccc(O)cc1)c1ccc(O)cc1O [Isoliquiritigenin]
[1]
  NA activity inhibition at 50 μM (%): 62.6%

## CC(=O)N1CCN(c2ccc(OCC3COC(Cn4ccnc4)(c4ccc(Cl)cc4Cl)O3)cc2)CC1 (stereo not drawn) [Ketoconazole]
[1]
  NA activity inhibition at 50 μM (%): 72.2%

## COC(=O)C(N)CS (stereo not drawn) [Mecysteine hydrochloride]
[1]
  NA activity inhibition at 50 μM (%): 51.3%

## Cc1cnc(NC(=O)C2=C(O)c3ccccc3S(=O)(=O)N2C)s1 [Meloxicam]
[1]
  NA activity inhibition at 50 μM (%): 62.1%

## O=c1c(O)c(-c2cc(O)c(O)c(O)c2)oc2cc(O)cc(O)c12 [Myricetin]
[1]
  NA activity inhibition at 50 μM (%): 61.6%

## CO[C@H]1C[C@H](O[C@H]2CC[C@]3(C)[C@H]4CC[C@]5(C)[C@@H](C6=CC(=O)OC6)CC[C@]5(O)[C@@H]4CC[C@]3(O)C2)O[C@H](C)[C@H]1O [Periplocymarin]
Influenza viruses; [8]
  IC50: 0.3 µM
Influenza viruses; [9]
  inhibition at 10 µM: > 50%
[1]
  NA activity inhibition at 50 μM (%): 75.2%
In vitro
  CC50: < 50 µM

## C1CNCCN1 [Piperazine]
[1]
  NA activity inhibition at 50 μM (%): 100.0%

## O=C(O)c1cc(O)c2c(c1)[C@H]([C@H]1c3cc(C(=O)O)cc(O)c3C(=O)c3c(O[C@@H]4O[C@H](CO)[C@@H](O)[C@H](O)[C@H]4O)cccc31)c1cccc(O[C@@H]3O[C@H](CO)[C@@H](O)[C@H](O)[C@H]3O)c1C2=O [Sennoside A]
[1]
  NA activity inhibition at 50 μM (%): 61.9%

## N#Cc1c(Cl)c(Cl)c(Cl)c(C#N)c1Cl [Tetrachloroisophthalonitrile]
Influenza viruses; [7]
  IC50: > 10 µM
[1]
  NA activity inhibition at 50 μM (%): 76.9%

## O=C(O[C@@H]1Cc2c(O)cc(O)cc2O[C@@H]1c1cc(O)c(=O)c2c(O)c(O)cc([C@H]3Oc4cc(O)cc(O)c4C[C@H]3OC(=O)c3cc(O)c(O)c(O)c3)c2c1)c1cc(O)c(O)c(O)c1 [Theaflavin digallate]
[1]
  NA activity inhibition at 50 μM (%): 61.5%
